Data on two compounds can be found in ChEMBL document CHEMBL6071135, “New resorcylic acid derivatives of Lysimachia tengyuehensis against MRSA and VRE by interfering with bacterial metabolic imbalance” (Eur J Med Chem, 2024).

Data set [1] in a line: Toxicity in Kunming mouse assessed as morphological abnormalities at 4 mg/kg administered daily and measured after 7 days. It is filed as organism-based. Particulars: in vivo, 168 h, time 7 day.
The subject of data set [2] is Staphylococcus aureus. Nature of the data set: Antibacterial activity against methicillin-resistant Staphylococcus aureus measured after 20 passages by broth microdilution method. It is filed as functional, organism-based. (In general: In broth dilution the organism is exposed to a series of concentrations in liquid medium.)
Data set [3] relates to Enterococcus faecalis. Nature of the data set: Induction of morphological changes in biofilm of vancomycin-resistant Enterococcus faecalis ATCC51299 assessed as appearance of broken biofilm at 1 to 4 times MIC incubated for 24 hrs by DAPI staining based fluorescence microscopy analysis. It is filed as functional, organism-based.
For data set [4], the system named is Enterococcus faecalis. As to the kind of experiment: Bactericidal activity against vancomycin-resistant Enterococcus faecalis ATCC51299 assessed as reduction in number of bacteria at 2 times MIC measured within 15 mins by time-kill assay. The data set is classed as functional, organism-based.
The test system of another data set is Cell membrane. Nature of the data set: Induction of cell membrane depolarization in vancomycin-resistant Enterococcus faecalis ATCC51299 assessed as reduction in fluorescence intensity measured for 30 mins by DiSC3(5) dye-based fluorescence assay. The data set is classed as subcellular.
Data set [5] relates to Staphylococcus aureus. Nature of the data set: Antibacterial activity against methicillin resistant Staphylococcus aureus infected in female Kunming mouse model of skin infection assessed as increase in neovascularization at 4 mg/kg administered daily pre-infected for 4 hrs followed by compound administration for 7 days. The data set is classed as functional, organism-based. The note with it: time 7.0 day.

The test system of data set [6] is Staphylococcus aureus. As to the kind of experiment: Antibacterial activity against methicillin resistant Staphylococcus aureus infected in female Kunming mouse model of skin infection assessed as suppression of purulent secretion at 4 mg/kg administered daily pre-infected for 4 hrs followed by compound administration for 7 days. The data set is classed as functional, organism-based. The note with it: time 7.0 day.

Data set [7] concerns Staphylococcus aureus. Nature of the data set: Antibacterial activity against methicillin resistant Staphylococcus aureus infected in female Kunming mouse model of skin infection assessed as reduction in bacterial load of wound at 4 mg/kg administered daily pre-infected for 4 hrs followed by compound administration for 7 days. The data set is classed as functional, organism-based. Particulars: time 7.0 day.

The subject of data set [8] is Enterococcus faecalis. Nature of the data set: Antimicrobial activity against vancomycin-resistant Enterococcus faecalis ATCC51299 assessed as increase in cell membrane fluidity at upto 4 times MIC incubated for 35 mins by Laurdan-GP dye based spectramax gemini XPS microplate reader analysis. The data set is classed as functional, organism-based.
In data set [9] the test system is Staphylococcus aureus. As to the kind of experiment: Antibacterial activity against methicillin resistant Staphylococcus aureus infected in female Kunming mouse model of skin infection assessed as reduction in inflammatory cell infiltration at 4 mg/kg administered daily pre-infected for 4 hrs followed by compound administration for 7 days. It is filed as functional, organism-based. The note with it: time 7.0 day.

Data set [10] concerns Staphylococcus aureus. Nature of the data set: Induction of morphological changes in biofilm of methicillin-resistant Staphylococcus aureus assessed as appearance of broken biofilm at 1 to 4 times MIC incubated for 24 hrs by DAPI staining based fluorescence microscopy analysis. The data set is classed as functional, organism-based.
In data set [11] the test system is Staphylococcus aureus. As to the kind of experiment: Antibacterial activity against methicillin resistant Staphylococcus aureus infected in female Kunming mouse model of skin infection assessed as reduction in wound size at 4 mg/kg administered daily pre-infected for 4 hrs followed by compound administration for 7 days. It is filed as functional, organism-based. Particulars: time 7.0 day.

For data set [12], the system named is Enterococcus faecalis. Nature of the data set: Antibacterial activity against vancomycin-resistant Enterococcus faecalis ATCC51299 infected in female Kunming mouse model of abdominal infection assessed as decrease in inflammatory cell infiltration at 4 mg/kg administered daily pre-infected for 12 hrs followed by compound administration for 3 days. The data set is classed as functional, organism-based. Particulars: time 3.0 day.

Data set [13] deals with Staphylococcus aureus. Nature of the data set: Antibiofilm activity in methicillin-resistant Staphylococcus aureus assessed as increase in biofilm destruction at 1 times MIC incubated for 24 hrs by crystal violet staining based analysis relative to control. The data set is classed as functional.
Data set [14] concerns Enterococcus faecalis. As to the kind of experiment: Antibacterial activity against vancomycin-resistant Enterococcus faecalis ATCC51299 infected in female Kunming mouse model of abdominal infection assessed as decrease in bacterial load in kidney at 4 mg/kg administered daily pre-infected for 12 hrs followed by compound administration for 3 days. It is filed as functional, organism-based. Particulars: time 3.0 day.

In data set [15] the test system is Enterococcus faecalis. Nature of the data set: Antibiofilm activity in vancomycin-resistant Enterococcus faecalis ATCC51299 assessed as increase in biofilm destruction at 1 times MIC incubated for 24 hrs by crystal violet staining based analysis relative to control. It is filed as functional.
The subject of data set [16] is Enterococcus faecalis. Nature of the data set: Antibacterial activity against vancomycin-resistant Enterococcus faecalis ATCC51299 infected in female Kunming mouse model of abdominal infection assessed as decrease in bacterial load in peritoneal effusion at 4 mg/kg administered daily pre-infected for 12 hrs followed by compound administration for 3 days. It is filed as functional, organism-based. Particulars: time 3.0 day.

The subject of data set [17] is Enterococcus faecalis. As to the kind of experiment: Antibacterial activity against vancomycin-resistant Enterococcus faecalis ATCC51299 infected in female Kunming mouse model of abdominal infection assessed as decrease in bacterial load in spleen at 4 mg/kg administered daily pre-infected for 12 hrs followed by compound administration for 3 days. It is filed as functional, organism-based. The note with it: time 3.0 day.

The subject of data set [18] is Enterococcus faecalis. As to the kind of experiment: Antibacterial activity against vancomycin-resistant Enterococcus faecalis ATCC51299 infected in female Kunming mouse model of abdominal infection assessed as watery degeneration of hepatocytes at 4 mg/kg administered daily pre-infected for 12 hrs followed by compound administration for 3 days. It is filed as functional, organism-based. The note with it: time 3.0 day.

The subject of data set [19] is Enterococcus faecalis. As to the kind of experiment: Antibacterial activity against vancomycin-resistant Enterococcus faecalis ATCC51299 infected in female Kunming mouse model of abdominal infection assessed as decrease in granulocytes at 4 mg/kg administered daily pre-infected for 12 hrs followed by compound administration for 3 days. It is filed as functional, organism-based. The note with it: time 3.0 day.

The test system of data set [20] is Enterococcus faecalis. Nature of the data set: Antibacterial activity against vancomycin-resistant Enterococcus faecalis ATCC51299 infected in female Kunming mouse model of abdominal infection assessed as decrease in bacterial load in liver at 4 mg/kg administered daily pre-infected for 12 hrs followed by compound administration for 3 days. It is filed as functional, organism-based. Particulars: time 3.0 day.

Each structure is given as a SMILES string. Active and inactive are the calls of the source. The calls are words filed in the database; no cut-off is given here.

As for `C=CCCCCCCCCCCCc1cc(O)cc(O)c1C(=O)O`, the Activity result in data set [1] was “Non-Toxic”. Further, in the data set on Staphylococcus aureus [2], the outcome was inactive. Further, the result in the data set on Enterococcus faecalis [3], with Enterococcus faecalis [4], in the data set with Cell membrane, with Staphylococcus aureus [5], in the data set on Staphylococcus aureus [6] and in the data set with Staphylococcus aureus [7] was Active. Also, the outcome with Enterococcus faecalis [8], in the data set with Staphylococcus aureus [9], with Staphylococcus aureus [10] and with Staphylococcus aureus [11] was Active.
As for `C=CCCCCCCCCCCCc1cc(O)cc(O)c1`, the outcome in the data set with Staphylococcus aureus [2] was inactive. The outcome in the data set on Enterococcus faecalis [12], in the data set on Enterococcus faecalis [14], with Enterococcus faecalis [16], with Enterococcus faecalis [3], in the data set with Enterococcus faecalis [17] and in the data set with Enterococcus faecalis [4] was Active. For the same compound, the outcome in the data set with Enterococcus faecalis [18], in the data set on Enterococcus faecalis [19], with Cell membrane, in the data set on Enterococcus faecalis [8], in the data set with Staphylococcus aureus [10] and in the data set with Enterococcus faecalis [20] was Active. Further, the Activity in the data set on Staphylococcus aureus [13] and in the data set with Enterococcus faecalis [15] was greater than 50% each time.
